From patent publication EP4772500A1, “NOVEL ISOXAZOLE COMPOUND AS TM4SF5-SPECIFIC INHIBITOR AND USE THEREOF” (Seoul National University R&DB Foundation, priority 2023, dated 2025)

Tests used:
TM4SF5 [1] = target: T1, TM4SF5 (Homo sapiens, UniProt O14894); assay: Streptavidin pulldown and Western blotting: binding between TM4SF5 and cell membrane receptors/signaling factors; type: cell-based; set-up: expressed in transfected cells; host or cells: SNU449 human hepatocellular carcinoma cells, stably transfected; conditions: 24 hours
T1 sequence (O14894 1-197): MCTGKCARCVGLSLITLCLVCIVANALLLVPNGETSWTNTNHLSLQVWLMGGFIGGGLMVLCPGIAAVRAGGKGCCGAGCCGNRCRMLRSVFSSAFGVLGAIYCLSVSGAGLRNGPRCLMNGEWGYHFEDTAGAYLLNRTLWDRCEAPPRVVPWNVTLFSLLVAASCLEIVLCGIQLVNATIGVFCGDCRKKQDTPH
Procedure: Cells were cultured to ~60% density in a cell incubator at 37°C and 5% CO2, and then transfected using PEI and cultured in a cell incubator at 37°C for two days. After cultivation, cell extracts were obtained by the method described above. After precipitating a desired protein from the cell extracts using an immunoprecipitation method, the binding proteins were identified by the Western blot technique described above. Specifically, cells cultured in a 100 mm cell culture dish for two days were washed twice with PBS, and protease inhibitor cocktails (GenDepot, USA) were added to 500 µl of immunoprecipitation lysis buffer (0.5% Triton X-100 or Brij 58, 40 mM HEPES, 150 mM NaCl, 1 mM EDTA, pH 7.4), followed by treatment at 4°C for 15 minutes. […] Proteins therein were quantified using a BCA reagent (Thermo Scientifics, USA). An electrophoresis sample was prepared by adding 4x laemmli sample buffer to a portion of the quantified sample and boiling at 100°C for 5 minutes. For immunoprecipitation, Streptavidin Agarose Resin (Thermo Fisher Scientific) or anti-HA antibody-coated Sepharose beads were added in proportion to the quantified protein amount, followed by rotation at 4°C for 4 hours, and then centrifugation was performed at 7,000x g at 4°C for 5 minutes and the supernatant was discarded. […]

PD-L1 = target: T2, PD-L1 (Homo sapiens, UniProt Q9NZQ7); assay: Cholesterol binding to PD-L1; conditions: summary statement, cholesterol binding to TM4SF5 and PD-L1
T2 construct: expressed in transfected cells; host or cells: Huh7 cells, transfected; captured on streptavidin agarose
T2 sequence (Q9NZQ7 19-290): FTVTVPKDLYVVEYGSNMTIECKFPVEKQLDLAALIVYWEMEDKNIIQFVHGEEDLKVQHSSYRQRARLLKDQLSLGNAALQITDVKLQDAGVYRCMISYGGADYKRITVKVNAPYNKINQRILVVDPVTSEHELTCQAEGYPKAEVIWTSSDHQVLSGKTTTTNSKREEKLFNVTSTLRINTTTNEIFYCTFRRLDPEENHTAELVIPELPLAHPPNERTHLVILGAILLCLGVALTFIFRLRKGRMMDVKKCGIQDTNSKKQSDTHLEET
Procedure: (a) Expression vectors for a control vector, TM4SF1, TM4SF5 WT, and R113Q, C118/145A, H127A, and N138A mutants of TM4SF5 were injected into the HEK293FT cell line, which was confirmed not to express TM4SF5, and allowed to express for 48 hours. (b) Huh7KO cell lines, in which TM4SF5 was knocked out in Huh7, were stably infected with a retrovirus encoding pBabe-EV or pBabe-TM4SF5-HA. […] (d) Strep-EV, Strep-PD-L1 WT, and 3NQ (N192/200/219Q) and 4NQ (N35/192/200/219Q) N-glycosylation mutants were injected into Huh7 cells to be expressed. (e) Strep-EV and Strep-TM4SF5 expression vectors were injected into Huh7KO cells and allowed to express for 48 hours. (a-e) After obtaining cell extracts, TM4SF5-strep, TM4SF5-HA, or PD-L1-strep was pulled down with streptavidin agarose resin or anti-HA antibody from extracts containing 0.2, 0.25, or 1.0 mg of protein for each experimental condition. […] Alternatively, they were treated with 1,2-^3H-Cholesterol (50 µM) alone or together with ST-3-001 (negative control compound), ST-5-001, or ST-5-002 (2.5 µM each) for 1 hour (c-e). For the experimental samples of each condition, radioactive isotope values were repeatedly measured using a TriCarb scintillation counter (PerkinElmer, Waltham, MA).

TM4SF5 [2] = target: T1, TM4SF5; assay: TM4SF5 expression-dependent animal models (summary statement); type: in vivo; set-up: expressed in transfected cells; captured on streptavidin agarose
Excerpt: In addition, the isoxazole compounds are capable of reversing both (i) an increase in PD-L1 expression and stabilization through direct binding mediated by TM4SF5 and (ii) induction of PD-1 expression in T cells, which suppresses T-cell activation and cancer cell killing functions.

| binding between TM4SF5 and EGFR, integrin α5, CD133, CD44, mTOR, IL-6R α, GLUT1, and GLUT4 (TM4SF5 [1]; 5 µM, SNU449 (FIG. 6)) | binding of TM4SF5 to EGFR, CD44, and GLUT4 (TM4SF5 [1]; 3 µM, SNU449 (FIG. 4)) | binding of cholesterol to PD-L1 (PD-L1) | doses at which effects were exhibited (TM4SF5 [2]) | Compound |
| --- | --- | --- | --- | --- |
| inhibited | – | – | – | COc1ccc(-c2cc(-c3ccc(NC(C)=O)cc3)no2)cc1 [ST-2-001, N-(4-(5-(4-methoxyphenyl)isoxazole-3-yl)phenyl)acetamide] |
| – | slightly inhibited | – | – | COc1ccc(-c2cc(-c3ccc(N)cc3)no2)cc1 [ST-1-025, 4-(5-(4-methoxyphenyl)isoxazole-3-yl)aniline] |
| – | – | inhibit | ≤ 2.5 mpk | Cc1ccc(C(=O)Nc2ccc(-c3cc(-c4ccc(O)cc4)no3)cc2)cc1 [ST-5-002, N-(4-(3-(4-hydroxyphenyl)isoxazole-5-yl)phenyl)-4-methylbenzamide] |
| – | – | inhibit | ≤ 2.5 mpk | CC(=O)Nc1ccc(-c2cc(-c3ccc(O)cc3)no2)cc1 [ST-5-001, N-(4-(3-(4-hydroxyphenyl)isoxazole-5-yl)phenyl)acetamide] |
